This is an account of results in PMC6437697 (Journal of Medicinal Chemistry, 2019).

Common to all, as to assay: KINOMEscan
Common to all, as to format: binding
Conditions in all cases: read-out: % control activity remaining

One test deals with T1, EPHA5 (Homo sapiens, UniProt P54756).
T1 construct: purchased Eurofins DiscoverX KINOMEscan

For a further test, the target named is T2, BIKE (Homo sapiens, UniProt Q9NSY1).
T2 construct: purchased Eurofins DiscoverX KINOMEscan

A further test deals with T3, IKK-alpha (Homo sapiens, UniProt O15111).
T3 construct: purchased Eurofins DiscoverX KINOMEscan
T3 sequence (O15111 1-745): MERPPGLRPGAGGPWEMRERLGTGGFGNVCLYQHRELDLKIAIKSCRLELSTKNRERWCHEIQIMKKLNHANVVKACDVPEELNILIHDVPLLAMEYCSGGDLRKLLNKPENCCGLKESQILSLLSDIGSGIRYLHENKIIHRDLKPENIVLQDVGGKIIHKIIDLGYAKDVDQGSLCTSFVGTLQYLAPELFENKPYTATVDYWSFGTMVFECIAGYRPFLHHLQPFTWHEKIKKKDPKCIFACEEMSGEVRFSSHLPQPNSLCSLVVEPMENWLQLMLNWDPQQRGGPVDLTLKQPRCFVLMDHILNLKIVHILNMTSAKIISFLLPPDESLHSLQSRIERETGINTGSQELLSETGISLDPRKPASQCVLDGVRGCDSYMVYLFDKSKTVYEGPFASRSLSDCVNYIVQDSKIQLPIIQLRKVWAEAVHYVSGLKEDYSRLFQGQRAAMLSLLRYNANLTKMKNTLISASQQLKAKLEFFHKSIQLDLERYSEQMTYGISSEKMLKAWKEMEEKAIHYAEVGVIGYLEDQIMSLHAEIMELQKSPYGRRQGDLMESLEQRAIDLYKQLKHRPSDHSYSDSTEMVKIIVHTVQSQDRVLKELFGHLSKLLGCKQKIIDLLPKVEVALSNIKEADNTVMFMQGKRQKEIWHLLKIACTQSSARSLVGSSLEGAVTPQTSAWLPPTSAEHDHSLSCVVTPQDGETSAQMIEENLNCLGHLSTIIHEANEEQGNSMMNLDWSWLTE

In a further test the target is T4, EPHB6 (Homo sapiens, UniProt O15197).
T4 construct: purchased Eurofins DiscoverX KINOMEscan
T4 sequence (O15197 32-1021): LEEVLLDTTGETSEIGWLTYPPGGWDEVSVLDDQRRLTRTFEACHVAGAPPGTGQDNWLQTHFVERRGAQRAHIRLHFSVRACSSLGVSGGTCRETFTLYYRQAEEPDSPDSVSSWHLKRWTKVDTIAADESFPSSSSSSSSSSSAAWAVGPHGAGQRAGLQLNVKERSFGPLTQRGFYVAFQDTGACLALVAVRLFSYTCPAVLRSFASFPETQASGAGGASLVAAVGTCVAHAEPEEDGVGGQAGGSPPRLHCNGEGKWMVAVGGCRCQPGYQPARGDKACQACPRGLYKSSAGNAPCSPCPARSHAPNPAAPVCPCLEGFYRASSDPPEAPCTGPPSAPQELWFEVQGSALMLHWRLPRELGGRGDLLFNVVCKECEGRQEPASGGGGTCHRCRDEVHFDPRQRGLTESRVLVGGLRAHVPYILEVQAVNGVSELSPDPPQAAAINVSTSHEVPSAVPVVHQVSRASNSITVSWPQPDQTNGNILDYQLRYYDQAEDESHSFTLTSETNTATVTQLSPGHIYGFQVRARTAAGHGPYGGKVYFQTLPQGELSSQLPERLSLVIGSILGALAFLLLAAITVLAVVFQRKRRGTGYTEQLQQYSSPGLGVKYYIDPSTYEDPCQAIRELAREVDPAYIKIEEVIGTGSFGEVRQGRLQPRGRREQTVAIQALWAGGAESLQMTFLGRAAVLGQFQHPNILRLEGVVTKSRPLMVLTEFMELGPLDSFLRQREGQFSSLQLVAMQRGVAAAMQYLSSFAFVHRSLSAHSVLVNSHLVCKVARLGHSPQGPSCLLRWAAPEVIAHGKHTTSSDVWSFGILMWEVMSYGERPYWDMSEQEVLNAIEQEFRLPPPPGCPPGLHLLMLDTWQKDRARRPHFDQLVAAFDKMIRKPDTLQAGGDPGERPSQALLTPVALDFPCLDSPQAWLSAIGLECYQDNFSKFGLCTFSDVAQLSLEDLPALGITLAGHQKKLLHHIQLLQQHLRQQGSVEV

A further test has as its target T5, PIK3CD (Homo sapiens, UniProt O00329).
T5 construct: purchased Eurofins DiscoverX KINOMEscan
T5 sequence (O00329 1-1044): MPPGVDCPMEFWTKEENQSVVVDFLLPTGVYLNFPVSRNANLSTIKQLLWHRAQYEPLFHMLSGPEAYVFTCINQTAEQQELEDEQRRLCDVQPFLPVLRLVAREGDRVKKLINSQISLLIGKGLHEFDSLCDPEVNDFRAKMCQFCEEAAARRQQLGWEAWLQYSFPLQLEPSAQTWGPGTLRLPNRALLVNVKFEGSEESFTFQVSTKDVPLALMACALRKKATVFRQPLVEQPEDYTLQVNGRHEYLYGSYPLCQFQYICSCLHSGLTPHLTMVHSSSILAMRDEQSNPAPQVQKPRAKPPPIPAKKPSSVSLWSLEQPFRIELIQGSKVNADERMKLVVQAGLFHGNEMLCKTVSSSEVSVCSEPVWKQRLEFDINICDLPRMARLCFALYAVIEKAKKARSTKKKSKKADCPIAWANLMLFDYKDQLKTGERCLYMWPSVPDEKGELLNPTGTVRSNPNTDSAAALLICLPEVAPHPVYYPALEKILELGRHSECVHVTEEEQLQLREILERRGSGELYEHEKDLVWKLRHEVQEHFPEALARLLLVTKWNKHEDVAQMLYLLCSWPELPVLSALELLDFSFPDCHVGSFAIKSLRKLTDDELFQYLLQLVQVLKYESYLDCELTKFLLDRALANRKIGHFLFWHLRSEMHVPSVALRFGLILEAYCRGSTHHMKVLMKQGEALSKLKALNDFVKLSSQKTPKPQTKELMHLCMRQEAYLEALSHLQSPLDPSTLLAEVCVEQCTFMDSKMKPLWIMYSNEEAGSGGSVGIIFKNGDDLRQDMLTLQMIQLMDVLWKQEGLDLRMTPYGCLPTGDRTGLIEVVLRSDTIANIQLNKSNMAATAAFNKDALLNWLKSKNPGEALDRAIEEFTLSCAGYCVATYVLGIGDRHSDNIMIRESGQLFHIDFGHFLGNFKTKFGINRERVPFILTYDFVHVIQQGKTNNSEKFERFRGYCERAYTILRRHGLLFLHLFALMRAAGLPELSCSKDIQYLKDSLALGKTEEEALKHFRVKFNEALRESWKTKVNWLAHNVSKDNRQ

T2 sequence (Q9NSY1 whole entry): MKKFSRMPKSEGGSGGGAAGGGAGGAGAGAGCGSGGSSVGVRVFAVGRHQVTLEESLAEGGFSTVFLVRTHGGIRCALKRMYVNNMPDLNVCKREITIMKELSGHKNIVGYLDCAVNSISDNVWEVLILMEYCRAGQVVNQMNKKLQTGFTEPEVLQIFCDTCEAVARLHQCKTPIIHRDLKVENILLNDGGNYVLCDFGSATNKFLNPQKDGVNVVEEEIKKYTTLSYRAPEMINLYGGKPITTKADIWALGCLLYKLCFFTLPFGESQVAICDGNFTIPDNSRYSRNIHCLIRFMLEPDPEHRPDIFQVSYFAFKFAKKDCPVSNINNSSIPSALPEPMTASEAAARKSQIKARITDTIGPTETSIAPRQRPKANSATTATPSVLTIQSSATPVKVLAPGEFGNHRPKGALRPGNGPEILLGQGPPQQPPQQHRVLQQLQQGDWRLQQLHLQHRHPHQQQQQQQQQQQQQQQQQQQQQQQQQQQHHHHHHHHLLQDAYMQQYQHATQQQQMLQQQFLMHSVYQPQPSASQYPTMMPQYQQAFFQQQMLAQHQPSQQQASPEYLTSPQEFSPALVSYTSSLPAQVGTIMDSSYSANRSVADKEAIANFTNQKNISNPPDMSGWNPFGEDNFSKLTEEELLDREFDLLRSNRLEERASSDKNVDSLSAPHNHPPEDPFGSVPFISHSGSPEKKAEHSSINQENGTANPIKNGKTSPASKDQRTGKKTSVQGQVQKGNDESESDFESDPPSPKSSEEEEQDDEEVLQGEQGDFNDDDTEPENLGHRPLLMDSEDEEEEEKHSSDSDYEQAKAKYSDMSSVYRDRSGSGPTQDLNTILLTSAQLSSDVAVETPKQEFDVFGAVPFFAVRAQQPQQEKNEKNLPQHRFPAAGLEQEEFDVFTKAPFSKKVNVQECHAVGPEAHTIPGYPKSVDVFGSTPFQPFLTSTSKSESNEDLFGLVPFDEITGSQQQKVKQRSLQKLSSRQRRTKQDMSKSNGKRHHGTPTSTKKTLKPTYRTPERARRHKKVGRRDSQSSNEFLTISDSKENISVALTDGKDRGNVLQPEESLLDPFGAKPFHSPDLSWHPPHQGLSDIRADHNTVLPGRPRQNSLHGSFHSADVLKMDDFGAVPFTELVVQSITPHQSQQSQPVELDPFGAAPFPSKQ
T1 sequence (P54756 25-1037): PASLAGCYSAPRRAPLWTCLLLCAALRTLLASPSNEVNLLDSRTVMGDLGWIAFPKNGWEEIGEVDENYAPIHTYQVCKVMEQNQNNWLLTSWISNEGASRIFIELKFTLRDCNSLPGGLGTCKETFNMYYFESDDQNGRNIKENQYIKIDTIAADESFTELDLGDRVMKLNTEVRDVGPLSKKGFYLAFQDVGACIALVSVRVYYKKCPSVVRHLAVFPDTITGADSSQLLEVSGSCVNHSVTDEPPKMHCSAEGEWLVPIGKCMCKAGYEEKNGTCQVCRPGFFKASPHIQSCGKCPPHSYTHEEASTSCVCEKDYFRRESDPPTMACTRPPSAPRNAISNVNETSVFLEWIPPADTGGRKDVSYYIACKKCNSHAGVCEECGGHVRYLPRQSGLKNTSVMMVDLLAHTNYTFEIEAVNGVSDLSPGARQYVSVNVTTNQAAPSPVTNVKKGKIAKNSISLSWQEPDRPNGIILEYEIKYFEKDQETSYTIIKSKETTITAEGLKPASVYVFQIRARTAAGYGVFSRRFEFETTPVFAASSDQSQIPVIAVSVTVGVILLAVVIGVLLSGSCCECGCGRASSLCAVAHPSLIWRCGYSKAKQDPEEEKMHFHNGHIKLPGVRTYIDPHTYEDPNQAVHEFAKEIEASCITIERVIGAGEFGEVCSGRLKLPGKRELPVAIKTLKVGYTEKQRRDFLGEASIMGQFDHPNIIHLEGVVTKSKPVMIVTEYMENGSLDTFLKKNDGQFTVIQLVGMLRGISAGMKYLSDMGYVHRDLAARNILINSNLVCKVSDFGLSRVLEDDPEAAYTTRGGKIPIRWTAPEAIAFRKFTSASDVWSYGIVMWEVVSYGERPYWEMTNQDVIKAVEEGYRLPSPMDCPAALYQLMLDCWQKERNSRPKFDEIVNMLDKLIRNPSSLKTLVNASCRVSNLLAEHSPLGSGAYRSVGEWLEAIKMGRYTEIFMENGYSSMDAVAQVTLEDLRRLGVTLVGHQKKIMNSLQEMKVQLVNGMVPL

Take `Clc1cc(NCC2CC2)c2ncc(-c3ccc4[nH]ncc4c3)n2n1` [compound 2, 6-Chloro-N-(cyclopropylmethyl)-3-(1H-indazol-5-yl)imidazo[1,2-b]pyridazin-8-amine]: the remaining binding at 1 µM on EPHA5 was determined as 99%; at BIKE it was 34%; on IKK-alpha it was 76%; at EPHB6, 68%; at PIK3CD it was 92%.
On the same counts, the results for `O=C(CN1CCOCC1)N[C@H]1CC[C@H](Nc2cc(Cl)nn3c(-c4ccc5[nH]ncc5c4)cnc23)CC1` [compound 26] are 93%, 13%, 100%, 89% and 90%.
On the same counts, the results for `CN1CCC(CNc2cc(Cl)nn3c(-c4cc5nc(Nc6ccccc6)[nH]c5cc4F)cnc23)CC1` [compound 31, 6-Chloro-3-(6-fluoro-2-(phenylamino)-1H-benzo[d]imidazol-5-yl)-N-((1-methylpiperidin-4-yl)methyl)imidazo[1,2-b]pyridazin-8-amine] are 99%, 91%, 90%, 83% and 75%.
